Test results taken from ChEMBL document CHEMBL3880391, “Tetrahydroquinoline derivatives as glycine antagonists” (2002).

Tests used:
[1] = Toxicity in orally dosed mouse assessed as induction of untoward effects; type: organism-based; conditions: in vivo, po
Mus musculus = assay: Analgesic activity in mouse assessed as inhibition of formalin-induced pain by measuring time spent licking injected paw for first 5 minutes (early phase) and from 20 to 60 mins (late phase) administered orally 1 hr before formalin injection by formalin test; type: functional

Row | SMILES | Activity [1] | ED50 (Mus musculus) | ED50 (Mus musculus; Mus musculus, po, read-out: ED50)
1 | O=C([O-])C1C/C(=C2/CCN(c3ccccc3)C2=O)c2c(Cl)cc(Cl)cc2N1.[Na+] (centres undefined) | Non-Toxic | – | –
2 | O=C([O-])C1C/C(=C2/NC(=O)N(c3ccccc3)C2=O)c2ccc(Cl)cc2N1.[Na+] (racemic) | Non-Toxic | – | –
3 | O=C([O-])C1C/C(=C2\CCN(c3cccnc3)C2=O)c2ccc(Cl)cc2N1.[Na+] (racemic) | Non-Toxic | – | –
4 | O=C([O-])C1CC(C2=CCCN(c3ccccc3)C2=O)c2ccc(Cl)cc2N1.[Na+] (racemic) | Non-Toxic | – | –
5 | O=C([O-])C1CC(C2=CCN(c3ccccc3)C2=O)c2ccc(Cl)cc2N1.[Na+] (racemic) | Non-Toxic | – | –
6 | O=C([O-])C1CC(C2=CCN(c3cccnc3)C2=O)c2ccc(Cl)cc2N1.[Na+] (racemic) | Non-Toxic | – | –
7 | CS(=O)(=O)Nc1ccc(N2CC=C(C3CC(C(=O)[O-])Nc4cc(Cl)ccc43)C2=O)cc1.[Na+] (racemic) | Non-Toxic | – | –
8 | CC(=O)Nc1ccc(N2CC=C(C3CC(C(=O)O)Nc4cc(Cl)ccc43)C2=O)cc1 (racemic) | Non-Toxic | – | –
9 | CC(=O)Nc1ccc(N2CC/C(=C3\CC(C(=O)O)Nc4cc(Cl)ccc43)C2=O)cc1 (racemic) | Non-Toxic | – | –
10 | O=C([O-])C1CC(C2=CCN(c3ccccc3)C2=O)c2c(Cl)cc(Cl)cc2N1.[Na+] (racemic) | Non-Toxic | – | –
11 | O=C([O-])C1CC(C2=CCN(c3ccccc3)C2=O)c2ccc(Cl)cc2N1.[Na+] (single isomer, unassigned) | – | 0.3 mg/kg | –
12 | O=C([O-])C1CC(C2=CCN(c3ccccc3)C2=O)c2ccc(Cl)cc2N1.[Na+] (single isomer, unassigned; (-)) | – | 0.03 mg/kg | –
13 | O=C([O-])C1C/C(=C2\CCN(c3ccccc3)C2=O)c2ccc(Cl)cc2N1.[Na+] (single isomer, unassigned; (-)) | Non-Toxic | – | 0.14 mg/kg
